Our source for the Ki values is patent US10988459B2 (priority 2015, dated 2021).

human RIP1 kinase domain (2-375), sequence (Q13546 2-375): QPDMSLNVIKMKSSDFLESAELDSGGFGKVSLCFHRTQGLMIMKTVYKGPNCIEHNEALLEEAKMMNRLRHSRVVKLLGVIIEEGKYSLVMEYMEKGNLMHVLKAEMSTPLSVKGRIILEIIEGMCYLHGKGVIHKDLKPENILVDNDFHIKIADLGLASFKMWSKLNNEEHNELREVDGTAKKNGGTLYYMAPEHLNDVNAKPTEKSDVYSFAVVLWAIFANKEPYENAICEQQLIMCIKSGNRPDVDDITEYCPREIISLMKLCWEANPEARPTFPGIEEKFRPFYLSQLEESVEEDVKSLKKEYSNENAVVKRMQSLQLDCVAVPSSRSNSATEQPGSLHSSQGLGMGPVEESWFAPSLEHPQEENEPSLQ

The assay has as its target human RIP1 kinase domain (2-375) (Homo sapiens (Human), UniProt Q13546). As to the kind of experiment: biochemical. The class given is biochemical. Conditions: tight-binding apparent inhibition constant; human RIP1 kinase domain (2-375) 50 nM, 50 uM ATP, 2 hours; read-out: Ki. An outline of the steps:
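Ki^app comes from Morrison tight-binding fits of fractional activity versus compound concentration. Activity was read as ADP production, via tracer displacement lowering fluorescence polarization (633 nm laser). Conditions: 2 h, 50 nM insect-cell-expressed enzyme, 50 uM ATP, 30 mM MgCl2, 1 mM DTT, 0.5% DMSO, pH 7.5 Hepes.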
Turning to `CN1C(=O)[C@@H](NC(=O)c2nc3n(n2)CCC32CCOCC2)COc2ccccc21` [Example 634, N-[(3S)-5-methyl-4-oxo-2,3-dihydro-1,5-benzoxazepin-3-yl]spiro[5,6-dihydropyrrolo[1,2-b][1,2,4]triazole-7,4′-tetrahydropyran]-2-carboxamide], the Ki stood at 240 nM. For `Cc1cc2n(n1)CC[C@H](NC(=O)c1nc3n(n1)CCC31CCOCC1)C(=O)N2C` [Example 635, N-[(6S)-2,4-dimethyl-5-oxo-7,8-dihydro-6H-pyrazolo[1,5-a][1,3]diazepin-6-yl]spiro[5,6-dihydropyrrolo[1,2-b][1,2,4]triazole-7,4′-tetrahydropyran]-2-carboxamide] the value was 7300 nM; for `Cc1cc2n(n1)CC[C@H](NC(=O)c1nc3n(n1)CCN3c1ccccc1)C(=O)N2C` [Example 636, 4-phenyl-N-[(6S)-2,4-dimethyl-5-oxo-7,8-dihydro-6H-pyrazolo[1,5-a][1,3]diazepin-6-yl]-5,6-dihydroimidazo[1,2-b][1,2,4]triazole-2-carboxamide], 130 nM.

Regarding `O=C(N[C@H]1CCc2cc(F)cc(F)c2NC1=O)c1ncc2c(n1)C1(CCCC1)OC2` [Example 637, N-[(3S)-7,9-difluoro-2-oxo-1,3,4,5-tetrahydro-1-benzazepin-3-yl]spiro[5H-furo[3,4-d]pyrimidine-7,1′-cyclopentane]-2-carboxamide], the Ki was found to be 18 nM. For `O=C(N[C@H]1CCc2cc(F)cc(F)c2NC1=O)c1nc2n(n1)CCO[C@H]2c1ccccc1` [Example 638, (8S)-8-phenyl-N-[(3S)-7,9-difluoro-2-oxo-1,3,4,5-tetrahydro-1-benzazepin-3-yl]-6,8-dihydro-5H-[1,2,4]triazolo[5,1-c][1,4]oxazine-2-carboxamide] the value was 38 nM; for `O=C(N[C@H]1CCc2cc(F)cc(F)c2NC1=O)c1nc2n(n1)CCO[C@@H]2c1ccccc1` [Example 639, (8R)-8-phenyl-N-[(3S)-7,9-difluoro-2-oxo-1,3,4,5-tetrahydro-1-benzazepin-3-yl]-6,8-dihydro-5H-[1,2,4]triazolo[5,1-c][1,4]oxazine-2-carboxamide], 420 nM; for `O=C(N[C@H]1COc2cc(F)cc(F)c2NC1=O)c1nc2n(n1)CCO[C@H]2c1ccccc1` [Example 640, (8S)-8-phenyl-N-[(3S)-6,8-difluoro-4-oxo-3,5-dihydro-2H-1,5-benzoxazepin-3-yl]-6,8-dihydro-5H-[1,2,4]triazolo[5,1-c][1,4]oxazine-2-carboxamide], 9.4 nM. Regarding `O=C(N[C@H]1COc2cc(F)cc(F)c2NC1=O)c1nc2n(n1)CCO[C@@H]2c1ccccc1` [Example 641, (8R)-8-phenyl-N-[(3S)-6,8-difluoro-4-oxo-3,5-dihydro-2H-1,5-benzoxazepin-3-yl]-6,8-dihydro-5H-[1,2,4]triazolo[5,1-c][1,4]oxazine-2-carboxamide], the Ki turned out to be 470 nM. Turning to `Cc1cc(F)c2c(c1)OC[C@H](NC(=O)c1nc3n(n1)CCO[C@H]3c1ccccc1)C(=O)N2` [Example 642, (8S)-8-phenyl-N-[(3S)-6-fluoro-8-methyl-4-oxo-3,5-dihydro-2H-1,5-benzoxazepin-3-yl]-6,8-dihydro-5H-[1,2,4]triazolo[5,1-c][1,4]oxazine-2-carboxamide], the Ki is 12 nM. For `Cc1cc(F)c2c(c1)OC[C@H](NC(=O)c1nc3n(n1)CCO[C@@H]3c1ccccc1)C(=O)N2` [Example 643, (8R)-8-phenyl-N-[(3S)-6-fluoro-8-methyl-4-oxo-3,5-dihydro-2H-1,5-benzoxazepin-3-yl]-6,8-dihydro-5H-[1,2,4]triazolo[5,1-c][1,4]oxazine-2-carboxamide] the value was 360 nM; for `Cc1cc2n(n1)CC[C@H](NC(=O)c1ncn(Cc3ncccc3C)n1)C(=O)N2C` [Example 644, 1-[(3-methyl-2-pyridyl)methyl]-N-(6S)-2,4-dimethyl-5-oxo-7,8-dihydro-6H-pyrazolo[1,5-a][1,3]diazepin-6-yl-1,2,4-triazole-3-carboxamide], 310 nM. As for `CN1C(=O)[C@@H](NC(=O)c2nc3n(n2)CCC32CCOC2)COc2ccccc21` (stereo partly drawn) [Example 645, N-[(3S)-5-methyl-4-oxo-2,3-dihydro-1,5-benzoxazepin-3-yl]spiro[5,6-dihydropyrrolo[1,2-b][1,2,4]triazole-7,3′-tetrahydrofuran]-2-carboxamide], the Ki was found to be 1200 nM. As for `Cc1cc2n(n1)CC[C@H](NC(=O)c1nc3n(n1)CCC31CCOC1)C(=O)N2C` (stereo partly drawn) [Example 646, N-[(6S)-2,4-dimethyl-5-oxo-7,8-dihydro-6H-pyrazolo[1,5-a][1,3]diazepin-6-yl]spiro[5,6-dihydropyrrolo[1,2-b][1,2,4]triazole-7,3′-tetrahydrofuran]-2-carboxamide], the figure is 9300 nM; as for `Cc1cccnc1Cn1cnc(C(=O)N[C@H]2CCn3nccc3N(C)C2=O)n1` [Example 647, 1-[(3-methyl-2-pyridyl)methyl]-N-(6S)-4-methyl-5-oxo-7,8-dihydro-6H-pyrazolo[1,5-a][1,3]diazepin-6-yl-1,2,4-triazole-3-carboxamide], 160 nM. For `Cc1cccnc1Cn1cnc(C(=O)N[C@H]2CCn3nc(C4CC4)cc3N(C)C2=O)n1` [Example 648] the value was 280 nM. For `Cc1cc2n(n1)CC[C@H](NC(=O)c1nc3n(n1)CCN3c1c(F)cccc1F)C(=O)N2C` [Example 649, 4-(2,6-difluorophenyl)-N-[(6S)-2,4-dimethyl-5-oxo-7,8-dihydro-6H-pyrazolo[1,5-a][1,3]diazepin-6-yl]-5,6-dihydroimidazo[1,2-b][1,2,4]triazole-2-carboxamide] the value was 140 nM. In the case of `CN1C(=O)[C@@H](NC(=O)c2ncn(Cc3ccccn3)n2)CCn2nccc21` [Example 650, 1-(2-pyridylmethyl)-N-(6S)-4-methyl-5-oxo-7,8-dihydro-6H-pyrazolo[1,5-a][1,3]diazepin-6-yl-1,2,4-triazole-3-carboxamide], the Ki was 190 nM. As for `Cc1cc2n(n1)CC[C@H](NC(=O)c1ncn(Cc3ccccn3)n1)C(=O)N2C` [Example 651, 1-(2-pyridylmethyl)-N-(6S)-2,4-dimethyl-5-oxo-7,8-dihydro-6H-pyrazolo[1,5-a][1,3]diazepin-6-yl-1,2,4-triazole-3-carboxamide], the figure is 290 nM. As for `CN1C(=O)[C@@H](NC(=O)c2ncn(Cc3ccccn3)n2)CCn2nc(C3CC3)cc21` [Example 652], the figure is 190 nM. For `CN1C(=O)[C@@H](NC(=O)c2ncn(Cc3ncccc3F)n2)CCn2nccc21` [Example 653, 1-[(3-fluoro-2-pyridyl)methyl]-N-(6S)-4-methyl-5-oxo-7,8-dihydro-6H-pyrazolo[1,5-a][1,3]diazepin-6-yl-1,2,4-triazole-3-carboxamide] the value was 110 nM; for `Cc1cc2n(n1)CC[C@H](NC(=O)c1ncn(Cc3ncccc3F)n1)C(=O)N2C` [Example 654, 1-[(3-fluoro-2-pyridyl)methyl]-N-(6S)-2,4-dimethyl-5-oxo-7,8-dihydro-6H-pyrazolo[1,5-a][1,3]diazepin-6-yl-1,2,4-triazole-3-carboxamide], 110 nM. Regarding `CN1C(=O)[C@@H](NC(=O)c2ncn(Cc3ncccc3F)n2)CCn2nc(C3CC3)cc21` [Example 655], the Ki was determined as 140 nM.

`Cc1cc2n(n1)CC[C@H](NC(=O)c1ncn(Cc3ncccc3Cl)n1)C(=O)N2C` [Example 657, 1-[(3-chloro-2-pyridyl)methyl]-N-(6S)-2,4-dimethyl-5-oxo-7,8-dihydro-6H-pyrazolo[1,5-a][1,3]diazepin-6-yl-1,2,4-triazole-3-carboxamide]: the Ki is 74 nM. As to `CN1C(=O)[C@@H](NC(=O)c2ncn(Cc3ncccc3Cl)n2)CCn2nc(C3CC3)cc21` [Example 658], the Ki came to 54 nM.

Consider `Cc1cn2c(n1)N(C)C(=O)[C@H](NC(=O)c1ncn(Cc3ccccc3F)n1)CC2` [Example 659, 1-[(2-fluorophenyl)methyl]-N-(7R)-2,9-dimethyl-8-oxo-6,7-dihydro-5H-imidazo[1,2-a][1,3]diazepin-7-yl-1,2,4-triazole-3-carboxamide], for which the Ki stood at 35 nM. As for `Cc1cn2c(n1)N(C)C(=O)[C@H](NC(=O)c1ncn(Cc3c(F)cccc3F)n1)CC2` [Example 660, 1-[(2,6-difluorophenyl)methyl]-N-(7R)-2,9-dimethyl-8-oxo-6,7-dihydro-5H-imidazo[1,2-a][1,3]diazepin-7-yl-1,2,4-triazole-3-carboxamide], the figure is 62 nM; as for `Cc1cn2c(n1)N(C)C(=O)[C@H](NC(=O)c1ncn(Cc3cc(F)ccc3F)n1)CC2` [Example 661, 1-[(2,5-difluorophenyl)methyl]-N-(7R)-2,9-dimethyl-8-oxo-6,7-dihydro-5H-imidazo[1,2-a][1,3]diazepin-7-yl-1,2,4-triazole-3-carboxamide], 57 nM; as for `CN1C(=O)[C@@H](NC(=O)c2ncn(Cc3ccccc3)n2)CCn2nc(CCCN3CCOCC3)cc21` [Example 662], 63 nM. For `Cc1ncccc1Cn1cnc(C(=O)N[C@H]2CCn3nccc3N(C)C2=O)n1` [Example 663, 1-[(2-methyl-3-pyridyl)methyl]-N-(6S)-4-methyl-5-oxo-7,8-dihydro-6H-pyrazolo[1,5-a][1,3]diazepin-6-yl-1,2,4-triazole-3-carboxamide] the value was 420 nM; for `Cc1cc2n(n1)CC[C@H](NC(=O)c1ncn(Cc3cccnc3C)n1)C(=O)N2C` [Example 664, 1-[(2-methyl-3-pyridyl)methyl]-N-(6S)-2,4-dimethyl-5-oxo-7,8-dihydro-6H-pyrazolo[1,5-a][1,3]diazepin-6-yl-1,2,4-triazole-3-carboxamide], 730 nM; for `Cc1ncccc1Cn1cnc(C(=O)N[C@H]2CCn3nc(C4CC4)cc3N(C)C2=O)n1` [Example 665], 740 nM.
